From patent publication US8026243B2, “[4,5′]Bipyrimidinyl-6,4′-diamine derivatives as protein kinase inhibitors” (Novartis AG, priority 2006, dated 2011)

What follows are compounds tested against T1, Ba/F3-TEL-FGFR3 cells (Homo sapiens, UniProt P22607) (assay: FGFR3 cellular assay: proliferation of transformed Ba/F3-TEL-FGFR3 cells (AlamarBlue)). Conditions: 48 hours incubation, class symbols.
T1 construct: fused on or other part: The N-terminal oligomerising part of TEL (ETV6) is fused before the intracellular kinase part of FGFR3; P41212 (Transcription factor ETV6)
T1 sequence (P22607 whole entry, change not shown, the tested form may be a part): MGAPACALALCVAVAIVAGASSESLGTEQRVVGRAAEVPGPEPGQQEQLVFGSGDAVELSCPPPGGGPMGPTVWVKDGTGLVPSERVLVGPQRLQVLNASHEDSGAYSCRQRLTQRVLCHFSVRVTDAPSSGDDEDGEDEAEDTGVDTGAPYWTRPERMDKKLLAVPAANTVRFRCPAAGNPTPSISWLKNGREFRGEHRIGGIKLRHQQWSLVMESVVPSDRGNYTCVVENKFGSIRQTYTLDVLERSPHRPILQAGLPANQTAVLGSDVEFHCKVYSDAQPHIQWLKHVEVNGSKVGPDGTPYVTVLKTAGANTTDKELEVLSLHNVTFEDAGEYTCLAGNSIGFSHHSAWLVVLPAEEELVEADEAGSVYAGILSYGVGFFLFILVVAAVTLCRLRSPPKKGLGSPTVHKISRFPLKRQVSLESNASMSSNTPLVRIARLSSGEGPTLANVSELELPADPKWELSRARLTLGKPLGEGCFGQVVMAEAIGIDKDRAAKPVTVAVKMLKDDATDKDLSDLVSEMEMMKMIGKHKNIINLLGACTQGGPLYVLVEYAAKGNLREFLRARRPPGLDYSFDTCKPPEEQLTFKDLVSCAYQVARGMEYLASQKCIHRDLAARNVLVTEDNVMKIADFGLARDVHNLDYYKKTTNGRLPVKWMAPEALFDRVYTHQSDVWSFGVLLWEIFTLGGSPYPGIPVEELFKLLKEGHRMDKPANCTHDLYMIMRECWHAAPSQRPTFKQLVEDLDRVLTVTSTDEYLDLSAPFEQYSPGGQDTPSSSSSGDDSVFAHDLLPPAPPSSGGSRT
Assay type: cell-based
Protocol: Compounds of the invention are tested for their ability to inhibit transformed Ba/F3-TEL-FGFR3 cells proliferation, which is dependent on FGFR3 cellular kinase activity. Ba/F3-TEL-FGFR3 are cultured up to 800,000 cells/mL in suspension, with RPMI 1640 supplemented with 10% fetal bovine serum as the culture medium. Cells are dispensed into 384-well format plate at 5000 cell/well in […], culture medium. Compounds of the invention are dissolved and diluted in dimethylsulfoxide (DMSO). Twelve points 1:3 serial dilutions are made into DMSO to create concentrations gradient ranging typically from 10 mM to 0.05 μM. Cells are added with 50 nL of diluted compounds and incubated for 48 hours in cell culture incubator. AlamarBlue® (TREK Diagnostic Systems), which can be used to monitor the reducing environment created by proliferating cells, are added to cells at final concentration of 10%. After additional four hours of incubation in a 37° C. cell culture incubator, fluorescence signals from reduced AlamarBlue® (Excitation at 530 nm, Emission at 580 nm) are quantified on Analyst GT (Molecular Devices Corp.). IC50 values are calculated by linear regression analysis of the percentage inhibition of each compound at 12 concentrations.

GI50, < 100 nM:
COc1cc(OC)c(Cl)c(Nc2ncncc2-c2cc(Nc3ccc(CN4CCOCC4)cn3)ncn2)c1C [Compound 52, N4′-(2-Chloro-3,5-dimethoxy-6-methyl-phenyl)-N6-(5-morpholin-4-ylmethyl-pyridin-2-yl)-[4,5′]bipyrimidinyl-6,4′-diamine]
CCN1CCN(Cc2ccc(Nc3cc(-c4cncnc4Nc4c(C)c(OC)cc(OC)c4Cl)ncn3)nc2)CC1 [Compound 53, N4′-(2-Chloro-3,5-dimethoxy-6-methyl-phenyl)-N6-[5-(4-ethyl-piperazin-1-ylmethyl)-pyridin-2-yl]-[4,5′]bipyrimidinyl-6,4′-diamine]
COc1cc(OC)c(Cl)c(Nc2ncncc2-c2cc(Nc3cc(CN4CCOCC4)ccn3)ncn2)c1C [Compound 54, N4′-(2-Chloro-3,5-dimethoxy-6-methyl-phenyl)-N6-(4-morpholin-4-ylmethyl-pyridin-2-yl)-[4,5′]bipyrimidinyl-6,4′-diamine]
CCN1CCN(c2ccc(Nc3cc(-c4cncnc4Nc4c(Cl)c(OC)cc(C(=O)NC5CC5)c4Cl)ncn3)nc2)CC1 [Compound 55, 2,4-Dichloro-N-cyclopropyl-3-{6-[5-(4-ethyl-piperazin-1-yl)-pyridin-2-ylamino]-[4,5′]bipyrimidinyl-4′-ylamino}-5-methoxy-benzamide]
COc1cc(OC)c(Cl)c(Nc2ncncc2-c2cc(Nc3cc(CCN4CCOCC4)ccn3)ncn2)c1F [Compound 56, N4′-(2-Chloro-6-fluoro-3,5-dimethoxy-phenyl)-N6-[4-(2-morpholin-4-yl-ethyl)-pyridin-2-yl]-[4,5′]bipyrimidinyl-6,4′-diamine]
COc1cc(C(=O)NC2CC2)c(Cl)c(Nc2ncncc2-c2cc(Nc3ccc(CN4CCOCC4)cn3)ncn2)c1Cl [Compound 57, 2,4-Dichloro-N-cyclopropyl-5-methoxy-3-[6-(5-morpholin-4-ylmethyl-pyridin-2-ylamino)-[4,5′]bipyrimidinyl-4′-ylamino]-benzamide]
CCN1CCN(Cc2ccc(Nc3cc(-c4cncnc4Nc4c(Cl)c(OC)cc(C(=O)NC5CC5)c4Cl)ncn3)nc2)CC1 [Compound 58, 2,4-Dichloro-N-cyclopropyl-3-{6-[5-(4-ethyl-piperazin-1-ylmethyl)-pyridin-2-ylamino]-[4,5′]bipyrimidinyl-4′-ylamino}-5-methoxy-benzamide]
CCN1CCN(c2ccc(Nc3cc(-c4cncnc4Nc4c(F)c(OC)cc(OC)c4Cl)ncn3)cc2)CC1 [Compound 59, N4′-(2-Chloro-6-fluoro-3,5-di-methoxy-phenyl)-N6-[4-(4-ethyl-piperazin-1-yl)-phenyl]-[4,5′]bipyrimidinyl-6,4′-diamine]
COc1cc(OC)c(Cl)c(Nc2ncncc2-c2cc(Nc3cc(CN4CCCC4)ccn3)ncn2)c1F [Compound 60, N4′-(2-Chloro-6-fluoro-3,5-dimethoxy-phenyl)-N6-(4-pyrrolidin-1-ylmethyl-pyridin-2-yl)-[4,5′]bipyrimidinyl-6,4′-diamine]
COc1cc(OC)c(Cl)c(Nc2ncncc2-c2cc(Nc3ccc(CN4CCN(C(C)=O)CC4)cn3)ncn2)c1F [Compound 61, 1-(4-{6-[4′-(2-Chloro-6-fluoro-3,5-dimethoxy-phenylamino)-[4,5′]bipyrimidinyl-6-ylamino]-pyridin-3-ylmethyl}-piperazin-1-yl)-ethanone]
CCN1CCN(c2ccc(Nc3cc(-c4cncnc4Nc4c(F)c(OC)cc(OC)c4F)ncn3)nc2)CC1 [Compound 62, N4′-(2,6-Difluoro-3,5-dimethoxy-phenyl)-N6-[5-(4-ethyl-piperazin-1-yl)-pyridin-2-yl]-[4,5′]bipyrimidinyl-6,4′-diamine]
COc1cc(OC)c(F)c(Nc2ncncc2-c2cc(Nc3ccc(CN4CCOCC4)cn3)ncn2)c1F [Compound 63, N4′-(2,6-Difluoro-3,5-dimethoxy-phenyl)-N6-(5-morpholin-4-ylmethyl-pyridin-2-yl)-[4,5′]bipyrimidinyl-6,4′-diamine]
CCN1CCN(Cc2ccc(Nc3cc(-c4cncnc4Nc4c(F)c(OC)cc(OC)c4F)ncn3)nc2)CC1 [Compound 64, N4′-(2,6-Difluoro-3,5-dimethoxy-phenyl)-N6-[5-(4-ethyl-piperazin-1-ylmethyl)-pyridin-2-yl]-[4,5′]bipyrimidinyl-6,4′-diamine]
COc1cc(OC)c(F)c(Nc2ncncc2-c2cc(Nc3cc(CN4CCOCC4)ccn3)ncn2)c1F [Compound 65, N4′-(2,6-Difluoro-3,5-dimethoxy-phenyl)-N6-(4-morpholin-4-ylmethyl-pyridin-2-yl)-[4,5′]bipyrimidinyl-6,4′-diamine]
COc1cc(OC)c(F)c(Nc2ncncc2-c2cc(Nc3ccc(CN4CCN(C(C)=O)CC4)cn3)ncn2)c1F [Compound 66, 1-(4-{6-[4′-(2,6-Difluoro-3,5-dimethoxy-phenylamino)-[4,5′]bipyrimidinyl-6-ylamino]-pyridin-3-ylmethyl}-piperazin-1-yl)-ethanone]
COc1cc(C(=O)NC2CC2)c(Cl)c(Nc2ncncc2-c2cc(Nc3ccc(CN4CCN(C(C)=O)CC4)cn3)ncn2)c1Cl [Compound 67, 3-{6-[5-(4-Acetyl-piperazin-1-ylmethyl)-pyridin-2-ylamino]-[4,5′]bipyrimidinyl-4′-ylamino}-2,4-dichloro-N-cyclopropyl-5-methoxy-benzamide]
COc1cc(Nc2ncncc2-c2cc(Nc3ccc(CN4CCOCC4)cn3)ncn2)c(F)c(OC)c1 [Compound 68, N4′-(2-Fluoro-3,5-dimethoxy-phenyl)-N6-(5-morpholin-4-ylmethyl-pyridin-2-yl)-[4,5′]bipyrimidinyl-6,4′-diamine]
CCN1CCN(Cc2ccc(Nc3cc(-c4cncnc4Nc4cc(OC)cc(OC)c4F)ncn3)nc2)CC1 [Compound 69, N6-[5-(4-Ethyl-piperazin-1-ylmethyl)-pyridin-2-yl]-N4′-(2-fluoro-3,5-dimethoxy-phenyl)-[4,5′]bipyrimidinyl-6,4′-diamine]
COc1cc(Nc2ncncc2-c2cc(Nc3ccc(CN4CCN(CCO)CC4)cn3)ncn2)c(F)c(OC)c1 [Compound 70, 2-(4-{6-[4′-(2-Fluoro-3,5-dimethoxy-phenylamino)-[4,5′]bipyrimidinyl-6-ylamino]-pyridin-3-ylmethyl}-piperazin-1-yl)-ethanol]
COc1cc(Nc2ncncc2-c2cc(Nc3cc(CN4CCOCC4)ccn3)ncn2)c(F)c(OC)c1 [Compound 71, N4′-(2-Fluoro-3,5-dimethoxy-phenyl)-N6-(4-morpholin-4-ylmethyl-pyridin-2-yl)-[4,5′]bipyrimidinyl-6,4′-diamine]
CCN1CCN(c2ccc(Nc3cc(-c4cncnc4Nc4cc(OC)cc(OC)c4F)ncn3)nc2)CC1 [Compound 72, N6-[5-(4-Ethyl-piperazin-1-yl)-pyridin-2-yl]-N4′-(2-fluoro-3,5-dimethoxy-phenyl)-[4,5′]bipyrimidinyl-6,4′-diamine]
COc1cc(OC)c(Cl)c(Nc2ncncc2-c2cc(Nc3ccc(CN4CCN(CCO)CC4)cn3)ncn2)c1F [Compound 73, 2-(4-{6-[4′-(2-Chloro-6-fluoro-3,5-dimethoxy-phenylamino)-[4,5′]bipyrimidinyl-6-ylamino]-pyridin-3-ylmethyl}-piperazin-1-yl)-ethanol]
COc1cc(OC)c(F)c(Nc2ncncc2-c2cc(Nc3ccc(CN4CCN(CCO)CC4)cn3)ncn2)c1F [Compound 74, 2-(4-{6-[4′-(2,6-Difluoro-3,5-di-methoxy-phenylamino)-[4,5′]bipyrimidinyl-6-ylamino]-pyridin-3-ylmethyl}-piperazin-1-yl)-ethanol]
COc1cc(OC)c(Cl)c(Nc2ncncc2-c2cc(Nc3ccc(CN4CCN(CCO)CC4)cn3)ncn2)c1Cl [Compound 75, 2-(4-{6-[4′-(2,6-Dichloro-3,5-dimethoxy-phenylamino)-[4,5′]bipyrimidinyl-6-yl-amino]-pyridin-3-ylmethyl}-piperazin-1-yl)-ethanol]
COc1cc(OC)c(Cl)c(Nc2ncncc2-c2cc(Nc3ccc(CN4CCN(CCO)CC4)cn3)ncn2)c1C [Compound 76, 2-(4-{6-[4′-(2-Chloro-3,5-dimethoxy-6-methyl-phenylamino)-[4,5′]bipyrimidinyl-6-ylamino]-pyridin-3-ylmethyl}-piperazin-1-yl)-ethanol]
COc1cc(OC)c(Cl)c(Nc2ncncc2-c2cc(Nc3cccc(C(C)O)c3)ncn2)c1F (stereo not shown) [Compound 77, 1-{3-[4′-(2-Chloro-6-fluoro-3,5-dimethoxy-phenylamino)-[4,5′]bipyrimidinyl-6-yl-amino]-phenyl}-ethanol]
COc1cc(OC)c(F)c(Nc2ncncc2-c2cc(Nc3cccc(C(C)O)c3)ncn2)c1F (stereo not shown) [Compound 78, 1-{3-[4′-(2,6-Difluoro-3,5-dimethoxy-phenylamino)-[4,5′]bipyrimidinyl-6-ylamino]-phenyl}-ethanol]
COc1cc(OC)c(Cl)c(Nc2ncncc2-c2cc(Nc3ccc(C(C)O)cn3)ncn2)c1F (stereo not shown) [Compound 79, 1-{6-[4′-(2-Chloro-6-fluoro-3,5-dimethoxy-phenylamino)-[4,5′]bipyrimidinyl-6-ylamino]-pyridin-3-yl}-ethanol]
